Usually IC50 stands for the concentration needed to halve the response being measured. Broadly, the inhibition is how much of the control response was suppressed.

The record followed here is publication PMC5589098 (PLoS ONE, 2017).

Data set [1] concerns the target hNav1.4 (Homo sapiens, UniProt P35499). The data set is described as follows: cell-based. It is filed as cell-based.
Data set [2] deals with hNav1.6 (Homo sapiens, UniProt Q9UQD0). The data set can be described thus: cell-based. It is filed as cell-based.
For data set [3], the target named is T1, hNav1.7 (Homo sapiens, UniProt Q15858). The data set is described as follows: cell-based.
Data set [4] concerns the target hNav1.2 (Homo sapiens, UniProt Q99250). The data set is described as follows: cell-based.
For data set [5], the target named is hNav1.5 (Homo sapiens, UniProt Q14524). The data set can be described thus: cell-based. It is filed as cell-based.
Data set [6] deals with hNav1.1 (Homo sapiens, UniProt P35498). The data set is described as follows: cell-based.
The test system of data set [7] is C57BL/6J mice. Conditions: mouse, in vivo.
Data set [8] has as its target hCav1.3 (Homo sapiens, UniProt Q01668). The data set can be described thus: cell-based.
In data set [9] the target is hNav1.3 (Homo sapiens, UniProt Q9NY46). The data set is described as follows: cell-based.
Data set [10] concerns adult sheep blowflies (Lucilia cuprina). The note with it: in vivo.
Data set [11] has as its target human (h) Cav2.2 channels in SH-SY5Y cells (Homo sapiens, UniProt Q00975). The data set is described as follows: cell-based.
Data set [12] concerns the target hNav1.8 (Homo sapiens, UniProt Q9Y5Y9). The data set can be described thus: cell-based.
Data set [13] concerns the target hCav3.1 (Homo sapiens, UniProt O43497). The data set is described as follows: cell-based.
In data set [14] the target is T1, hNav1.7. The data set can be described thus: cell-based. The source holds these as a separate data set.
The target in data set [15] is rat (r) Cav2.2 (Cav α1b + Cav β1b + Cav α2δ) (Rattus norvegicus, UniProt Q02294). The data set can be described thus: cell-based.
In data set [16] the test system is Nav1.7-mediated pain in C57BL/6J mice. The note with it: mouse, in vivo.

Like-named read-outs stand apart in the source and are kept apart here. Where a SMILES comes first, the peptide text is derived from it. Bridges are numbered along the chain shown (N, C = ends).

hNav1.6, sequence (Q9UQD0 whole entry): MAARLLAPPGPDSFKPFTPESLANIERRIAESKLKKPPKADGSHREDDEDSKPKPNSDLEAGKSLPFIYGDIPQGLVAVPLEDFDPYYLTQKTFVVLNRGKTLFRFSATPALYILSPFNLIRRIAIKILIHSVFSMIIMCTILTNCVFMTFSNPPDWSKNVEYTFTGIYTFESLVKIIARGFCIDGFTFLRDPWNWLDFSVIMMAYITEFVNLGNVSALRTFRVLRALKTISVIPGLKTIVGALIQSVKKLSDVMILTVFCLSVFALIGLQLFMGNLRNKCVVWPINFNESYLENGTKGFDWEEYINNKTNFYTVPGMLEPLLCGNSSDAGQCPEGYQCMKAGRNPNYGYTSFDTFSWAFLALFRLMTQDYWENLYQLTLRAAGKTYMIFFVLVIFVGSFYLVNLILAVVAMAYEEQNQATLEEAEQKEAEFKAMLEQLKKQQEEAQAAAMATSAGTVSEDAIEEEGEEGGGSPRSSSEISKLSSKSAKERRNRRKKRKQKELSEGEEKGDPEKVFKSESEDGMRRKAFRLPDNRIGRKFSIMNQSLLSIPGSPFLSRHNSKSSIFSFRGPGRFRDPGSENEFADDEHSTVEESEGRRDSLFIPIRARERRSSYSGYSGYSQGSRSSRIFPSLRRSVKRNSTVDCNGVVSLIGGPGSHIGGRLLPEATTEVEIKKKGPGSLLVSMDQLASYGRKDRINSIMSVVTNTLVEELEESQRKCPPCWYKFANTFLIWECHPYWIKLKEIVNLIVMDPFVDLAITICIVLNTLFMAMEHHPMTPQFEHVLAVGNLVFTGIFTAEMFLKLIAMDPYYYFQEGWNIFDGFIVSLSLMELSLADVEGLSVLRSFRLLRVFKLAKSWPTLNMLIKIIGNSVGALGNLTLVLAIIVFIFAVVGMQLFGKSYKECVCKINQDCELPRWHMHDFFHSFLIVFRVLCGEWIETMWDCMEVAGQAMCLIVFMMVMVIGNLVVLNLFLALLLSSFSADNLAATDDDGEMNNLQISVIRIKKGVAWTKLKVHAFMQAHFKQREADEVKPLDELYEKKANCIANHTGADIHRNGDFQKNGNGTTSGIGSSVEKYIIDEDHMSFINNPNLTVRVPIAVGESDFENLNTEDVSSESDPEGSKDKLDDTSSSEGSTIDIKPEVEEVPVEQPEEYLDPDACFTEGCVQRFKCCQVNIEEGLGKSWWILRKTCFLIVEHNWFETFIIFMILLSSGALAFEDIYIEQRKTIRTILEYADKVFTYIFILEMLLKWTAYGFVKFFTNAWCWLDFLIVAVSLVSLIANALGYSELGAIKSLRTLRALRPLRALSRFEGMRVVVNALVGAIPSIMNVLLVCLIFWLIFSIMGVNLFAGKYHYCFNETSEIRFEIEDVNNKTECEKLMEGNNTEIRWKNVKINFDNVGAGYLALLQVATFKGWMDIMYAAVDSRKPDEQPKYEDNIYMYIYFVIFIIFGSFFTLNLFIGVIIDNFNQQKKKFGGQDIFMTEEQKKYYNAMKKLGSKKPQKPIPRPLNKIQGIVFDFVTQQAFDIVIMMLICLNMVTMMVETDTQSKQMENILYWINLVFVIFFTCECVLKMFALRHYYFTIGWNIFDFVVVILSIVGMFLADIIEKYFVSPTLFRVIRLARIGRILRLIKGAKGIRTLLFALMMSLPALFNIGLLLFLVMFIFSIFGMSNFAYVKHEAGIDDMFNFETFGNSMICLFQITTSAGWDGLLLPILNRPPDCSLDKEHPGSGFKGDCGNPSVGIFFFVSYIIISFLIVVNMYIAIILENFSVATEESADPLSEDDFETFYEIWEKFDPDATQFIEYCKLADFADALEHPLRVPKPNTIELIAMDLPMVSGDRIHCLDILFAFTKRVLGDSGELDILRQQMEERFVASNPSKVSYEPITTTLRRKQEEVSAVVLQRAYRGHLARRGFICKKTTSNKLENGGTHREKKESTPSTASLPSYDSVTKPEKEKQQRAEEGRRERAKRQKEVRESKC
T1 sequence (Q15858 whole entry): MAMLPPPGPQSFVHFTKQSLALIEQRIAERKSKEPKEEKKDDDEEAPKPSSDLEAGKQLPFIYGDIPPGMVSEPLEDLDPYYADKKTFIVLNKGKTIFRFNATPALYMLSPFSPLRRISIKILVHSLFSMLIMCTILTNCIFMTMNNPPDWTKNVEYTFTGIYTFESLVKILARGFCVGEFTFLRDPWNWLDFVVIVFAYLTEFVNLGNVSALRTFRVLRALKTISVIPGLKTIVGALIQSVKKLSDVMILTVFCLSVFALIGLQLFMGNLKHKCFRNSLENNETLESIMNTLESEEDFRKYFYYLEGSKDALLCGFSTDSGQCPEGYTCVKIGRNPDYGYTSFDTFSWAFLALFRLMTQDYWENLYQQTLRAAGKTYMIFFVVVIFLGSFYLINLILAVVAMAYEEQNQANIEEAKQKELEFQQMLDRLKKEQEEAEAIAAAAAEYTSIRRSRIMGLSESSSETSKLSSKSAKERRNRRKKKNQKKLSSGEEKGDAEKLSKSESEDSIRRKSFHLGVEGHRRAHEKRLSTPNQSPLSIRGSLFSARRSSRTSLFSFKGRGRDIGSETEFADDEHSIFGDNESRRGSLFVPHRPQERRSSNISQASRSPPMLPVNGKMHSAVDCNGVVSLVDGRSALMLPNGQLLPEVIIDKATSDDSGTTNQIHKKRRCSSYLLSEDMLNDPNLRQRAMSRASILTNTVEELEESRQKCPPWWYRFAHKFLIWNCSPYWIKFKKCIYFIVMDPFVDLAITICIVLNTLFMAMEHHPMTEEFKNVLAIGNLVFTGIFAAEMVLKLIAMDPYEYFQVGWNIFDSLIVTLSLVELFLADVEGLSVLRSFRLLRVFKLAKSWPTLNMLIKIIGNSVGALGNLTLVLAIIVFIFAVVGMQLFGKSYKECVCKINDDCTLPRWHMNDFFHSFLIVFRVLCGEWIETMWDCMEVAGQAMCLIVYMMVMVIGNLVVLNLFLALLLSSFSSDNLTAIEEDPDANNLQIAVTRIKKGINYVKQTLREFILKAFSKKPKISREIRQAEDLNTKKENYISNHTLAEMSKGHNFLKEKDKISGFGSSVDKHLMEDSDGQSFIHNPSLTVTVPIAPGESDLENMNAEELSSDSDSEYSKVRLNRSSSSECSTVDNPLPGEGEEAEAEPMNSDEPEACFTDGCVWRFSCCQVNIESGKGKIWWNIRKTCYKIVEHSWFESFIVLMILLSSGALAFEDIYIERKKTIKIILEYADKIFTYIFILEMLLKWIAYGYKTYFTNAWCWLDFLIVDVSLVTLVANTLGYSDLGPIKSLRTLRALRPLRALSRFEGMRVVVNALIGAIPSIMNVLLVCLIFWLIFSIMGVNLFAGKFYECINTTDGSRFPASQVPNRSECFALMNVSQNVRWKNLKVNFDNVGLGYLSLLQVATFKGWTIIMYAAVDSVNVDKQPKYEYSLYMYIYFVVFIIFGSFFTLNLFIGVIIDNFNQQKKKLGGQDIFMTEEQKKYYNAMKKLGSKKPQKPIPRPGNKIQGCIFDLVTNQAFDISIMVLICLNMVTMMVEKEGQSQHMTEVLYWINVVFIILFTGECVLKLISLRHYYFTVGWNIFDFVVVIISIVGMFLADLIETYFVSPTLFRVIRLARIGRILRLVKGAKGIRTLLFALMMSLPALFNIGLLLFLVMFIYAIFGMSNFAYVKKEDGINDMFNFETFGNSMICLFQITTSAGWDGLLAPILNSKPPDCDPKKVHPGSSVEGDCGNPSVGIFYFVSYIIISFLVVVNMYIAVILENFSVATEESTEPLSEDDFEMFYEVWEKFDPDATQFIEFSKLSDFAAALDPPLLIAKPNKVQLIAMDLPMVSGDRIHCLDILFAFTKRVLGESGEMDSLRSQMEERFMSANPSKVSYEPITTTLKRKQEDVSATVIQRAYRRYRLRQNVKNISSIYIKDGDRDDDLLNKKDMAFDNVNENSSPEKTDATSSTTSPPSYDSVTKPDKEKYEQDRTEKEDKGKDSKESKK
T1 sequence (Q07699 19-218, further chain): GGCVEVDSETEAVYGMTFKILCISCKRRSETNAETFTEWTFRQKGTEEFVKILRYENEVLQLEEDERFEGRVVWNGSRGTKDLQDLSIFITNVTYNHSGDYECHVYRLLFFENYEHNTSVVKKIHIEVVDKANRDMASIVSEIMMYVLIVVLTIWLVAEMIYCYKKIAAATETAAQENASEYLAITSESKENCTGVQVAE

For the compound `CC(C)C[C@H](NC(=O)[C@H](CC(=O)O)NC(=O)[C@H](Cc1ccc(O)cc1)NC(=O)[C@H](CCCCN)NC(=O)[C@@H]1CSSC[C@@H]2NC(=O)[C@H](CCCCN)NC(=O)[C@H](CC(=O)O)NC(=O)[C@H](CC(N)=O)NC(=O)[C@H](CCCCN)NC(=O)[C@@H]3CCCN3C(=O)[C@H](CC(=O)O)NC(=O)[C@@H]3CSSC[C@H](NC(=O)[C@H](CO)NC(=O)[C@H](Cc4ccc(O)cc4)NC(=O)[C@H](CC(N)=O)NC(=O)[C@H](CCCCN)NC(=O)[C@H](CSSC[C@H](NC(=O)[C@@H](N)CC(=O)O)C(=O)N[C@@H](CC(C)C)C(=O)NCC(=O)N[C@@H](Cc4c[nH]c5ccccc45)C(=O)N[C@@H](Cc4ccccc4)C(=O)N[C@@H](CCCCN)C(=O)N[C@@H](CO)C(=O)N3)NC2=O)C(=O)N[C@@H](CO)C(=O)N[C@@H](CCCNC(=N)N)C(=O)N[C@@H](CCCNC(=N)N)C(=O)N[C@@H](CC(=O)O)C(=O)N[C@@H](CCCNC(=N)N)C(=O)N[C@@H](Cc2c[nH]c3ccccc23)C(=O)N1)C(N)=O` [Cd1a] (H-DCLGWFKSCDPKNDKCCKNYSCSRRDRWCKYDL-NH2; disulfide 2-17, 9-22, 16-29), the IC50 in data set [1] was over 30 µM; in data set [2], over 30 µM; in data set [3], 3.34 ± 1.56 µM; in data set [4], 0.13 ± 0.04 µM; in data set [5], over 30 µM; in data set [6], 2.18 ± 0.69 µM. Further, the IC50 in data set [8] was over 30 µM; in [9] it was over 30 µM; in [11], 2.6 µM; in [12], 6.92 ± 3.44 µM; in [13] it was over 30 µM; in data set [14] (n = 10, read-out: IC50 at hNav1.7 (peak current)) it was 0.016 µM. In addition, in [15], the IC50 was 3 µM. Moreover, the “IC50 at Nav1.4” value in data set [1] was “inactive”. For the same compound, in data set [2], the “IC50 at Nav1.6” value is “inactive”. Besides, the “IC50 at Nav1.5” value in data set [5] is “inactive”. In addition, the “ataxia index (number of foot slips/meters travelled)” value in data set [7] was “no significant effect”. Also, in data set [7], the side effects entry is “did not produce any apparent side effects”. In [8], the “activity at Cav1.3” value was “inactive”. In addition, the “paralysis or lethality at 24 h” value in data set [10] is “No signs of paralysis or lethality”. Besides, the recovery from paralysis result in [10] is “all flies fully recovered”. The “activity at Cav3.1” value in data set [13] was “inactive”. In addition, the “enhanced recovery from inhibition by strong positive-depolarising pulse” value in data set [14] is on record as ~ 70%. Moreover, in data set [15] (TS/A, 3 μM, n = 9, read-out: inhibition of rCav2.2 currents), the inhibition at 3 µM is about 50%.
For `CC(C)C[C@H](NC(=O)[C@H](CC(=O)O)NC(=O)[C@H](Cc1ccc(O)cc1)NC(=O)[C@H](CCCCN)NC(=O)[C@@H]1CSSC[C@@H]2NC(=O)[C@H](CCCCN)NC(=O)[C@H](CC(=O)O)NC(=O)[C@H](CC(N)=O)NC(=O)[C@H](CCCCN)NC(=O)[C@@H]3CCCN3C(=O)[C@H](CC(=O)O)NC(=O)[C@@H]3CSSC[C@H](NC(=O)[C@H]([C@@H](C)O)NC(=O)[C@H](Cc4ccc(O)cc4)NC(=O)[C@H](CC(N)=O)NC(=O)[C@H](CCCCN)NC(=O)[C@H](CSSC[C@H](NC(=O)[C@@H](N)CC(=O)O)C(=O)N[C@@H](CC(C)C)C(=O)NCC(=O)N[C@@H](Cc4c[nH]c5ccccc45)C(=O)N[C@@H](Cc4ccccc4)C(=O)N[C@@H](CCCCN)C(=O)N[C@@H](CO)C(=O)N3)NC2=O)C(=O)N[C@@H](CO)C(=O)N[C@@H](CCCNC(=N)N)C(=O)N[C@@H](CCCNC(=N)N)C(=O)N[C@@H](CC(=O)O)C(=O)N[C@@H](CCCNC(=N)N)C(=O)N[C@@H](Cc2c[nH]c3ccccc23)C(=O)N1)C(N)=O` [Cm1a] (H-DCLGWFKSCDPKNDKCCKNYTCSRRDRWCKYDL-NH2; disulfide 2-17, 9-22, 16-29), the IC50 in data set [2] was over 10 µM; in data set [3] it was 5.12 ± 2.85 µM; in data set [4] (read-out: IC50 at Nav1.2) it was 0.07 µM; in [5], over 10 µM; in data set [6] it was 1.06 ± 0.32 µM; in [9] it was over 10 µM. Moreover, the IC50 in [11] was 0.4 ± 0.2 µM; in [12], over 10 µM. For the same compound, in [7], the side effects entry is given as “did not produce any apparent side effects”. The “activity at Cav1.3” value in data set [8] was “inactive”. Further, in data set [13], the “activity at Cav3.1” value was “inactive”.
For the compound `CC(C)C[C@H](NC(=O)[C@H](Cc1ccc(O)cc1)NC(=O)[C@H](Cc1ccc(O)cc1)NC(=O)[C@H](CCCCN)NC(=O)[C@@H]1CSSC[C@@H]2NC(=O)[C@H](CCCCN)NC(=O)[C@H](CC(=O)O)NC(=O)[C@H](CC(N)=O)NC(=O)[C@H](CCCCN)NC(=O)[C@@H]3CCCN3C(=O)[C@H](CC(=O)O)NC(=O)[C@@H]3CSSC[C@H](NC(=O)[C@H]([C@@H](C)O)NC(=O)[C@H](Cc4ccc(O)cc4)NC(=O)[C@H](CC(N)=O)NC(=O)[C@H](CCCCN)NC(=O)[C@H](CSSC[C@H](NC(=O)[C@@H](N)CC(=O)O)C(=O)N[C@@H](CC(C)C)C(=O)NCC(=O)N[C@@H](Cc4c[nH]c5ccccc45)C(=O)N[C@@H](Cc4ccccc4)C(=O)N[C@@H](CCCCN)C(=O)N[C@@H](CO)C(=O)N3)NC2=O)C(=O)N[C@@H](CO)C(=O)N[C@@H](CCCNC(=N)N)C(=O)N[C@@H](CCCNC(=N)N)C(=O)N[C@@H](CC(=O)O)C(=O)N[C@@H](CCCNC(=N)N)C(=O)N[C@@H](Cc2c[nH]c3ccccc23)C(=O)N1)C(N)=O` [Cm1b] (H-DCLGWFKSCDPKNDKCCKNYTCSRRDRWCKYYL-NH2; disulfide 2-17, 9-22, 16-29), the half-inhibitory concentration (IC50) in [2] is 3.99 ± 1.6 µM; in data set [3], 0.23 ± 0.13 µM; in [4], 0.08 ± 0.02 µM; in data set [5], over 10 µM; in data set [6], 0.17 ± 0.11 µM; in [9], 5.57 ± 0.04 µM. Also, the IC50 in [11] is 1.1 ± 0.6 µM; in data set [12], over 10 µM. For the same compound, the side effects entry in [7] is listed as “did not produce any apparent side effects”. For the same compound, the “activity at Cav1.3” value in data set [8] is “inactive”. Besides, the “activity at Cav3.1” value in data set [13] is “inactive”.
Regarding `NC1=N[C@H](O)[C@H]2[C@H]3O[C@]4(O)O[C@@H]([C@@H](O)[C@@]2(N1)[C@@H]4O)[C@]3(O)CO` [TTX, tetrodotoxin], the “reversal of OD1-evoked pain behaviours” value in data set [16] was “fully reversed”. Also, the “ataxia index (number of foot slips/meters travelled)” value in [7] is given as “significantly increased the ataxia index (*p < 0.05)”.
